# Source: the NIST ThermoML archive (doi:10.1021/acs.jced.9b00170)
# Numbers after ± are expanded uncertainties.
# Assay: activity coefficient (dimensionless); of the first substance listed, at infinite dilution; xn = mol fraction of the nth substance listed
# Settings: 101.33 kPa, Liquid, Chromatography, x1 = 0
smiles,measurement,setting,value
CCCCCCC [heptane] + CCCC[n+]1ccc(C)cc1.F[B-](F)(F)F,activity coefficient,313.1 K,84.8 ± 4
same,activity coefficient,333.1 K,73.7 ± 3.5
same,activity coefficient,353.1 K,67.4 ± 3.1
Cc1ccccc1 [toluene] + CCCC[n+]1ccc(C)cc1.F[B-](F)(F)F,activity coefficient,313.1 K,2.66 ± 0.12
same,activity coefficient,333.1 K,2.69 ± 0.12
same,activity coefficient,353.1 K,2.73 ± 0.12
CC1CCCC1 [methylcyclopentane] + CCCC[N+]1(C)CCCC1.O=S(=O)([N-]S(=O)(=O)C(F)(F)F)C(F)(F)F,activity coefficient,313.1 K,10.3 ± 0.47
same,activity coefficient,333.1 K,9.08 ± 0.42
same,activity coefficient,353.1 K,8.11 ± 0.37
CC1CCCCC1 [methylcyclohexane] + CCCC[N+]1(C)CCCC1.O=S(=O)([N-]S(=O)(=O)C(F)(F)F)C(F)(F)F,activity coefficient,313.1 K,8.53 ± 0.39
same,activity coefficient,333.1 K,7.52 ± 0.34
same,activity coefficient,353.1 K,6.76 ± 0.31
CCCCCC [hexane] + CCCC[n+]1ccc(C)cc1.F[B-](F)(F)F,activity coefficient,313.1 K,59.8 ± 2.8
same,activity coefficient,333.1 K,52.4 ± 2.4
same,activity coefficient,353.1 K,49 ± 2.3
CCCCCC [hexane] + CCCC[N+]1(C)CCCC1.O=S(=O)([N-]S(=O)(=O)C(F)(F)F)C(F)(F)F,activity coefficient,313.1 K,12.6 ± 0.58
same,activity coefficient,333.1 K,10.2 ± 0.47
same,activity coefficient,353.1 K,9.5 ± 0.44
Cc1ccccc1 [toluene] + CCCCn1cc[n+](C)c1.F[B-](F)(F)F,activity coefficient,313.1 K,3.28 ± 0.15
same,activity coefficient,333.1 K,3.33 ± 0.15
same,activity coefficient,353.1 K,3.4 ± 0.15
CC1CCCC1 [methylcyclopentane] + CCCC[n+]1ccc(C)cc1.F[B-](F)(F)F,activity coefficient,313.1 K,31.3 ± 1.4
same,activity coefficient,333.1 K,26.4 ± 1.2
same,activity coefficient,353.1 K,25.8 ± 1.2
CCCCCCCC [octane] + CCCC[N+]1(C)CCCC1.O=S(=O)([N-]S(=O)(=O)C(F)(F)F)C(F)(F)F,activity coefficient,313.1 K,23.7 ± 1.1
same,activity coefficient,333.1 K,20.8 ± 0.96
same,activity coefficient,353.1 K,19.1 ± 0.88
CCCCCCCCC [nonane] + CCCC[n+]1ccc(C)cc1.F[B-](F)(F)F,activity coefficient,313.1 K,182 ± 8.6
same,activity coefficient,333.1 K,153 ± 7.2
same,activity coefficient,353.1 K,131 ± 6.2
CC1CCCC1 [methylcyclopentane] + CCCCn1cc[n+](C)c1.F[B-](F)(F)F,activity coefficient,313.1 K,35.6 ± 1.7
same,activity coefficient,333.1 K,30.6 ± 1.4
same,activity coefficient,353.1 K,28.8 ± 1.3
CC1CCCCC1 [methylcyclohexane] + CCCCn1cc[n+](C)c1.F[B-](F)(F)F,activity coefficient,313.1 K,45.7 ± 2.1
same,activity coefficient,333.1 K,40.5 ± 1.9
same,activity coefficient,353.1 K,35.5 ± 1.6
CCCCCCCC [octane] + CCCC[n+]1ccc(C)cc1.F[B-](F)(F)F,activity coefficient,313.1 K,130 ± 6.1
same,activity coefficient,333.1 K,107 ± 5
same,activity coefficient,353.1 K,99.8 ± 4.7
CCCCCCC [heptane] + CCCCn1cc[n+](C)c1.F[B-](F)(F)F,activity coefficient,313.1 K,78.7 ± 3.7
same,activity coefficient,333.1 K,69 ± 3.2
same,activity coefficient,353.1 K,62.2 ± 2.9
"Cc1ccccc1C [1,2-dimethylbenzene] + CCCCn1cc[n+](C)c1.F[B-](F)(F)F",activity coefficient,313.1 K,4.55 ± 0.21
same,activity coefficient,333.1 K,4.51 ± 0.21
same,activity coefficient,353.1 K,4.49 ± 0.2
CCCCCCCCCC [decane] + CCCC[n+]1ccc(C)cc1.F[B-](F)(F)F,activity coefficient,313.1 K,306 ± 14
same,activity coefficient,333.1 K,234 ± 11
same,activity coefficient,353.1 K,223 ± 11
CCCCCCCC [octane] + CCCCn1cc[n+](C)c1.F[B-](F)(F)F,activity coefficient,313.1 K,92.2 ± 4.3
same,activity coefficient,333.1 K,83.7 ± 3.9
same,activity coefficient,353.1 K,72.4 ± 3.4
CCCCCCCCCC [decane] + CCCC[N+]1(C)CCCC1.O=S(=O)([N-]S(=O)(=O)C(F)(F)F)C(F)(F)F,activity coefficient,313.1 K,50.1 ± 2.3
same,activity coefficient,333.1 K,45.3 ± 2.1
same,activity coefficient,353.1 K,40.6 ± 1.9
"Cc1ccccc1C [1,2-dimethylbenzene] + CCCC[N+]1(C)CCCC1.O=S(=O)([N-]S(=O)(=O)C(F)(F)F)C(F)(F)F",activity coefficient,313.1 K,1.57 ± 0.06
same,activity coefficient,333.1 K,1.59 ± 0.06
same,activity coefficient,353.1 K,1.61 ± 0.06
CCCCCCC [heptane] + CCCC[N+]1(C)CCCC1.O=S(=O)([N-]S(=O)(=O)C(F)(F)F)C(F)(F)F,activity coefficient,313.1 K,17 ± 0.79
same,activity coefficient,333.1 K,15.3 ± 0.71
same,activity coefficient,353.1 K,13.6 ± 0.62
CCCCCCCCCC [decane] + CCCCn1cc[n+](C)c1.F[B-](F)(F)F,activity coefficient,313.1 K,177 ± 8.4
same,activity coefficient,333.1 K,144 ± 6.8
same,activity coefficient,353.1 K,125 ± 5.9
CCCCCCCCC [nonane] + CCCC[N+]1(C)CCCC1.O=S(=O)([N-]S(=O)(=O)C(F)(F)F)C(F)(F)F,activity coefficient,313.1 K,33.1 ± 1.5
same,activity coefficient,333.1 K,29.2 ± 1.4
same,activity coefficient,353.1 K,26.8 ± 1.2
CCCCCC [hexane] + CCCCn1cc[n+](C)c1.F[B-](F)(F)F,activity coefficient,313.1 K,56.7 ± 2.6
same,activity coefficient,333.1 K,47.8 ± 2.2
same,activity coefficient,353.1 K,45.2 ± 2.1
CC1CCCCC1 [methylcyclohexane] + CCCC[n+]1ccc(C)cc1.F[B-](F)(F)F,activity coefficient,313.1 K,41.5 ± 1.9
same,activity coefficient,333.1 K,34.8 ± 1.6
same,activity coefficient,353.1 K,33.1 ± 1.5
"Cc1ccccc1C [1,2-dimethylbenzene] + CCCC[n+]1ccc(C)cc1.F[B-](F)(F)F",activity coefficient,313.1 K,4.48 ± 0.2
same,activity coefficient,333.1 K,4.55 ± 0.21
same,activity coefficient,353.1 K,4.59 ± 0.21
Cc1ccccc1 [toluene] + CCCC[N+]1(C)CCCC1.O=S(=O)([N-]S(=O)(=O)C(F)(F)F)C(F)(F)F,activity coefficient,313.1 K,1.22 ± 0.04
same,activity coefficient,333.1 K,1.29 ± 0.04
same,activity coefficient,353.1 K,1.37 ± 0.05
